Patent publication US20250382332A1, “NOVEL ALPHA-FACTOR BASED PEPTIDES WITH ANTIFUNGAL ACTIVITY” (INVAIO SCIENCES, INC., priority 2024, published 2025)
Peptide text beside a SMILES is read from it.

Tested on: Botrytis cinerea (B05.10)
Assay: Resazurin antifungal assay of 180 alpha-factor peptide variants towards Botrytis (Example 2)
Type: cell-based
Conditions: % inhibition of fungal growth, Botrytis conidia, resazurin; for Inhibition at 10 μM: peptide 10 μM; for Inhibition at 20 μM: peptide 20 μM; for Inhibition at 50 μM: peptide 50 μM; for Inhibition at 100 μM: peptide 100 μM
Method: The antifungal activity of 180 alpha-factor peptide variants towards Botrytis was tested. Experimental design:
Peptides corresponding to SEQ ID NO: 1-180 were chemically synthesized using the solid-phase synthesis method and resuspended in water to a stock solution of 1 mM. The stock solution was aliquoted in cryovials and stored at −80° C.
The Botrytis cinerea culture (B05.10) isolate was acquired from the Centraalbureau voor Schimmelcultures, the Netherlands. The Botrytis fungus was propagated on 0.5% V8 agar plates (200 ml V8 Juice, 3 g CaCO3, 15 g agar, 800-ml millipore water) at 20° C., in a 12 h photoperiod for 21 days.
Fungal conidia were harvested by scraping a Botrytis plate flooded with 1 ml water with 0.1% Tween 80 solution. Conidia were then collected in a 50 ml falcon tube by passing the solution through a 40 micron filter. The solution was then centrifuged at 6000 rpm and the pellet was resuspended in 1 ml of 20% glycerol. The conidia concentration of the resulting solution was counted using a hemocytometer. The stock was diluted to […] using 20% glycerol and frozen in 100 μl aliquots in −80° C. until further use.
Peptides were tested for activity against Botrytis, using the resazurin assay. For this, fungal stock conidia was first diluted to 5000 conidia/well. 50 μl of the spore suspension was added to each well of the sterile 96-well clear bottom testing plate and mixed with 50 μl of peptide solutions to a final concentration of 100, 50, 20, 15 and 10 μM. The plate was incubated for 24 h at 20° C. After 24 h, 10 μl of resazurin dye was added to the microtiter plate and incubated again for […]. Fluorescence was measured at 570/620 nm after 4 h of incubation with resazurin.
Growth inhibition was calculated by subtracting the fluorescence values of conidia only wells from sample wells and depicted as % inhibition of fungal growth. Four technical replicates were used for all treatments.

Structure (SMILES)	Inhibition at 10 μM	Inhibition at 20 μM	Inhibition at 50 μM	Inhibition at 100 μM
CSCC[C@H](NC(=O)CNC(=O)[C@H](CCC(N)=O)NC(=O)CNC(=O)[C@H](CC(N)=O)NC(=O)[C@H](CCCCN)NC(=O)[C@H](CC(C)C)NC(=O)[C@H](C)NC(=O)[C@@H](NC(=O)[C@H](Cc1c[nH]c2ccccc12)NC(=O)[C@H](Cc1c[nH]cn1)NC(=O)[C@@H](N)Cc1c[nH]c2ccccc12)C(C)C)C(=O)N[C@@H](Cc1ccc(O)cc1)C(=O)O [compound 23] (H-WHWVALKNGQGMY-OH; N-terminus and C-terminus assumed)	<90%	<90%	98.68%	100%
CSCC[C@H](NC(=O)[C@@H]1CCCN1C(=O)[C@H](CCC(N)=O)NC(=O)CNC(=O)[C@@H]1CCCN1C(=O)[C@H](CCCCN)NC(=O)[C@H](Cc1ccccc1)NC(=O)[C@H](CC(N)=O)NC(=O)[C@H](CC(C)C)NC(=O)[C@H](Cc1ccc(O)cc1)NC(=O)[C@H](Cc1c[nH]cn1)NC(=O)[C@@H](N)CCCCN)C(=O)N[C@@H](Cc1ccc(O)cc1)C(=O)O [compound 24] (H-KHYLNFKPGQPMY-OH; N-terminus and C-terminus assumed)	<90%	<90%	96.95%	100%
CSCC[C@H](NC(=O)[C@@H]1CCCN1C(=O)[C@H](CCC(N)=O)NC(=O)CNC(=O)[C@@H](NC(=O)[C@H](CCCCN)NC(=O)[C@H](Cc1ccccc1)NC(=O)[C@H](CCC(N)=O)NC(=O)[C@H](CC(C)C)NC(=O)[C@H](CC(C)C)NC(=O)[C@H](Cc1c[nH]cn1)NC(=O)[C@@H](N)Cc1c[nH]c2ccccc12)C(C)C)C(=O)N[C@@H](Cc1ccc(O)cc1)C(=O)O [compound 25] (H-WHLLQFKVGQPMY-OH; N-terminus and C-terminus assumed)	<90%	<90%	92.63%	100%
CC[C@H](C)[C@H](NC(=O)[C@H](Cc1c[nH]c2ccccc12)NC(=O)[C@H](Cc1c[nH]cn1)NC(=O)[C@@H](N)Cc1c[nH]c2ccccc12)C(=O)N[C@@H](CCC(N)=O)C(=O)N[C@@H](Cc1ccccc1)C(=O)N[C@@H](CCCCN)C(=O)N1CCC[C@H]1C(=O)NCC(=O)N[C@@H](CCC(N)=O)C(=O)N[C@@H](CO)C(=O)N[C@@H](CCSC)C(=O)N[C@@H](Cc1ccc(O)cc1)C(=O)O [compound 26] (H-WHWIQFKPGQSMY-OH; N-terminus and C-terminus assumed)	<90%	<90%	91.39%	100%
CSCC[C@H](NC(=O)[C@@H]1CCCN1C(=O)[C@H](CCC(N)=O)NC(=O)CNC(=O)[C@H](CO)NC(=O)[C@H](CCCCN)NC(=O)[C@H](CC(C)C)NC(=O)[C@H](CC(N)=O)NC(=O)[C@H](CC(C)C)NC(=O)[C@H](Cc1ccccc1)NC(=O)[C@H](Cc1c[nH]cn1)NC(=O)[C@@H](N)CCCCN)C(=O)N[C@@H](Cc1ccc(O)cc1)C(=O)O [compound 27] (H-KHFLNLKSGQPMY-OH; N-terminus and C-terminus assumed)			90.58%	100%
CSCC[C@H](NC(=O)[C@@H]1CCCN1C(=O)[C@H](CCC(N)=O)NC(=O)CNC(=O)[C@@H]1CCCN1C(=O)[C@H](CCCCN)NC(=O)[C@H](CC(C)C)NC(=O)[C@H](C)NC(=O)[C@H](CC(C)C)NC(=O)[C@H](Cc1ccccc1)NC(=O)[C@H](Cc1c[nH]cn1)NC(=O)[C@@H](N)CCCCN)C(=O)N[C@@H](Cc1ccc(O)cc1)C(=O)O [compound 28] (H-KHFLALKPGQPMY-OH; N-terminus and C-terminus assumed)			<90%	100%
